The results in this text go back to patent US20240254199A1, “MODIFIED MAMMALIAN CELLS” (Genentech, Inc., priority 2021, published 2024).

Common to all, as to format: cell-based, Chinese hamster
For assay [1], the system named is PDGFRa. Nature of the assay: PDGFRa protein (western blot) and mRNA (qPCR) levels upon chemical UPR induction. Conditions: seed train, mAb1-expressing CHO DG44 and CHO-K1, optimal pH. How it is done: 1.5 million cells were lysed in 1× NP40 buffer (10 mM Tris, pH 8.0, 0.5% NP40, 150 mM NaCl, 10 mM DTT and 5 mM MgCl2) containing protease inhibitor cocktails (Roche EDTA free mini-tablets cocktail) for 20 min on ice. Lysates were subjected to sodium dodecyl sulfate-polyacrylamide gel electrophoresis (SDS-PAGE) (4-12% Tris glycine) and transferred to nitrocellulose membrane. After blocking with 5% milk in tris-buffered saline (TBS)-0.1% Tween buffer, the membranes were blotted with respective antibodies. Blots were visualized using HRP-conjugated anti-rabbit anti-body and SuperSignal West Dura Extended Duration Substrate. The following inhibitors were used: ATF6i (10 μM Ceapin-A7 (Gallagher, et al., 2016)), PERKi (10 μM Compound 39 (Axten, et al., 2012)), IRE1i6 (10 μM 4u8c (Cross, et al., 2012)), IRE1i9 (10 μM in-house/Genentech), PDGFRi (5-20 μM Abcam, AG-1296). […]
An interesting phenomenon was previously described where activation of UPR in seed train culture, triggered by lower pH conditions in a particular CHO cell line, negatively affected culture growth in production media at target pH (Tung, et al., 2018). When exposed to low pH conditions, high intracellular BiP levels were detected in this cell line that correlated to low growth profiles during production and poor bioprocess outcomes (Tung, et al., 2018). […]
(A western blot detects proteins with antibodies after separation by electrophoresis.)

Assay [2] concerns mAb2-expressing CHO-K1 cells. As to the kind of experiment: Fed-batch production of mAb2-expressing CHO cell line with PDGFRa inhibitor and/or insulin. Conditions: added on Day 3 of fed-batch production. On the procedure:
Fed-batch production cultures were performed as disclosed here and below in Example 2, with proprietary chemically defined medium using different vessels (e.g., tube-spin and AMBR15) along with bolus feeds on Days 3, 7 and 10 as previously mentioned (Hsu, Aulakh, Traul, & Yuk, 2012). Anti-cell aggregation agent was used in all cultures during production assay to prevent cell aggregation due to the release of DNA from dying cells. Cells were seeded at low (1-2×10^6 cells/mL) or high (10×10^6 cells/mL) seeding densities using lean or rich production media. Cultures were temperature shifted from 37° C. to 35° C. on Day 3. Titers were determined using Protein-A affinity chromatography with UV detection. Percent viability and viable cell count were determined using a Vi-Cell XR instrument (Beckman Coulter Item #383721).
(§1) It was previously shown that UPR-induced poor growth profiles correlated with a decrease in PDGFRa levels (FIGS. 19A and 19B) (Tung, et al., 2018). PDGFRa and insulin signaling pathways have overlapping downstream targets (FIG. 21A), however insulin signaling negatively regulates PDGFRa signaling (Cirri, et al., 2005). […]

Assay [3] relates to empty host CHO-K1 cells. Nature of the assay: Seed train growth of empty host CHO-K1 cells with PDGFRa inhibitor and/or insulin. How it is done:
1.5 million cells were lysed in 1× NP40 buffer (10 mM Tris, pH 8.0, 0.5% NP40, 150 mM NaCl, 10 mM DTT and 5 mM MgCl2) containing protease inhibitor cocktails (Roche EDTA free mini-tablets cocktail) for 20 min on ice. Lysates were subjected to sodium dodecyl sulfate-polyacrylamide gel electrophoresis (SDS-PAGE) (4-12% Tris glycine) and transferred to nitrocellulose membrane. After blocking with 5% milk in tris-buffered saline (TBS)-0.1% Tween buffer, the membranes were blotted with respective antibodies. Blots were visualized using HRP-conjugated anti-rabbit anti-body and SuperSignal West Dura Extended Duration Substrate. The following inhibitors were used: ATF6i (10 μM Ceapin-A7 (Gallagher, et al., 2016)), PERKi (10 μM Compound 39 (Axten, et al., 2012)), IRE1i6 (10 μM 4u8c (Cross, et al., 2012)), IRE1i9 (10 μM in-house/Genentech), PDGFRi (5-20 μM Abcam, AG-1296). The following antibodies were used: anti-PDGFRa (Cell Signaling Technology (CST), D1E1E), rabbit anti-BiP (C50B12, Cell Signaling Technology, 3177), rabbit anti-PERK (CST, C33E10), mouse anti-o-actin-HRP (AC-15) (Abcam, ab49900), rabbit anti-phospho-Akt (Ser473) (CST, D9E), rabbit anti-Akt (CST, 5G3), rabbit cleaved caspase3 (CST, asp175), goat anti-human IgG-HRP (MP Biomedicals, 0855252), rabbit IRE1a (CST, 14C10), mouse anti-phospho-IRE1, mouse anti-XBP1, rabbit anti-Bax (Abcam, ab32503), rabbit anti-Bak (CST, D4E4), donkey anti-rabbit HRP (Jackson ImmunoResearch Laboratories, Inc., 711-035-152), rabbit anti-sod2 (CST, D3×8F)
as §1

Tunicamycin: the “PDGFRa levels (protein and mRNA)” value in assay [1] was “reduced at both the protein and mRNA levels”.
For `COc1cc2ncc(-c3ccccc3)nc2cc1OC` [PDGFRa inhibitor, AG-1296], in assay [2], the “cell growth and viability in fed-batch production” value is “significantly decreased cell growth, without affecting cell viability”. Further, the “reduction of cell growth” value in assay [3] (20 μM, empty host CHO-K1 cells, seed train media, 4 days) was “approximately 50%”.
In the case of insulin, in assay [2], the “cell growth and viability in fed-batch production” value is listed as “partially rescued the observed cell growth inhibition”. The Akt phosphorylation result in assay [3] (insulin added to cultures with PDGFRa inhibitor, western blot) is “increased Akt phosphorylation”. The “cellular growth of cultures treated with the PDGFRa inhibitor” value in assay [3] (insulin added to seed train cultures with PDGFRa inhibitor) is “partially rescued cellular growth”.
